Laboratory results published in patent US20180051017A1, “AGENT FOR TREATMENT OF SCHIZOPHRENIA” (Sumitomo Dainippon Pharma Co., Ltd., priority 2002, published 2018).
Counter-ions that a name gives are not always drawn.

Test system: patients with schizophrenia in the acute exacerbation phase
Test: First stage phase II clinical trial: safety (adverse events, serious adverse events, side effects, ECG, laboratory tests)
Type: in vivo, human
Protocol: According to the procedures as shown in Table 1 as described below, the placebo-controlled double blind experiment was done on 149 patients with schizophrenia in the acute exacerbation phase at 15 facilities in USA. The efficacy and safeness were studied when SM-13496 at a dose of 40 mg or 120 mg, or a placebo was orally administered once a day for 6 weeks after placebo washout.

[1] = 40 mg orally once a day for 6 weeks, 50 subjects

Question: What does the source list for `O=C1[C@@H]2[C@@H]3CC[C@@H](C3)[C@@H]2C(=O)N1C[C@@H]1CCCC[C@H]1CN1CCN(c2nsc3ccccc23)CC1` [SM-13496, (1R,2S,3R,4S)-N-[(1R,2R)-2-[4-(1,2-benzoisothiazol-3-yl)-1-piperazinyl-methyl]-1-cyclohexylmethyl]-2,3-bicyclo[2.2.1]heptanedicarboximide hydrochloride]?
Answer: Relationship of the serious adverse events to the tested medicament (40 mg and 120 mg groups): denied; Body weight gain, bulimia, impotence, erectile dysfunction or convulsion (40 mg or 120 mg, 6 weeks): not observed; Change in 12-lead electrocardiogram (40 mg or 120 mg, 6 weeks): no clinically significant change; Number of subjects showing adverse events (%) [1]: 40 (80) number of subjects (%); Number of subjects showing serious adverse events (%) [1]: 3 (6) number of subjects (%); Number of subjects who drop out from the trial due to adverse events (%) [1]: 6 (12) number of subjects (%); Ratio of the patients having an abnormal change in laboratory values among the groups (40 mg, 120 mg and placebo groups): no significant difference; Occurrence of adverse event: Akathisia (40 mg, 6 weeks, 50 subjects): 4 (8) number of subjects (%); Occurrence of adverse event: Digestive disturbance (40 mg, 6 weeks, 50 subjects): 4 (8) number of subjects (%); Occurrence of adverse event: Drowsiness (40 mg, 6 weeks, 50 subjects): 4 (8) number of subjects (%); Occurrence of adverse event: Exacerbation of schizophrenia (40 mg, 6 weeks, 50 subjects): 2 (4) number of subjects (%); Occurrence of adverse event: Free-floating vertigo (excluding rotatory vertigo) (40 mg, 6 weeks, 50 subjects): 6 (12) number of subjects (%); Occurrence of adverse event: Headache (40 mg, 6 weeks, 50 subjects): 8 (16) number of subjects (%); Occurrence of adverse event: Nausea (40 mg, 6 weeks, 50 subjects): 5 (10) number of subjects (%); Occurrence of adverse event: Suppression (40 mg, 6 weeks, 50 subjects): 9 (18) number of subjects (%); Occurrence of serious adverse event: Exacerbation of paranoia (40 mg, 6 weeks, 50 subjects): 1 (2) number of subjects (%); Occurrence of serious adverse event: Exacerbation of schizophrenia (40 mg, 6 weeks, 50 subjects): 1 (2) number of subjects (%); Occurrence of serious adverse event: Paranoid schizophrenia (40 mg, 6 weeks, 50 subjects): 0 (0) number of subjects (%); Occurrence of serious adverse event: Psychosis aggravated (40 mg, 6 weeks, 50 subjects): 1 (2) number of subjects (%); Occurrence of side effects (%) (40 mg, 6 weeks, 50 subjects): 33 (66) number of subjects (%); Serious adverse events: Total (%) (40 mg, 6 weeks, 50 subjects): 3 (6) number of subjects (%); Side effect: Abdominal pain (Gastroenteric disturbance) (40 mg, 6 weeks, 50 subjects): 0 (0) number of subjects (%); Side effect: Abnormal electrocardiogram (Laboratory assay) (40 mg, 6 weeks, 50 subjects): 0 (0) number of subjects (%); Side effect: Abnormal liver function tests (Laboratory assay) (40 mg, 6 weeks, 50 subjects): 0 (0) number of subjects (%); Side effect: Agitation (Mental disturbance) (40 mg, 6 weeks, 50 subjects): 0 (0) number of subjects (%); Side effect: Agitation aggravated (Mental disturbance) (40 mg, 6 weeks, 50 subjects): 0 (0) number of subjects (%); Side effect: Akathisia (Nervous system disorder) (40 mg, 6 weeks, 50 subjects): 4 (8) number of subjects (%); Side effect: Akathisia aggravated (Nervous system disorder) (40 mg, 6 weeks, 50 subjects): 1 (2) number of subjects (%); Side effect: Anarthria (Nervous system disorder) (40 mg, 6 weeks, 50 subjects): 0 (0) number of subjects (%); Side effect: Anorexia (Metabolic disturbances and nutritional disturbance) (40 mg, 6 weeks, 50 subjects): 1 (2) number of subjects (%); Side effect: Anxiety aggravated (Mental disturbance) (40 mg, 6 weeks, 50 subjects): 1 (2) number of subjects (%); Side effect: Articular rigidity (Musculoskeletal system and connective tissue disorder) (40 mg, 6 weeks, 50 subjects): 1 (2) number of subjects (%); Side effect: Blurred vision (Ocular disturbance) (40 mg, 6 weeks, 50 subjects): 1 (2) number of subjects (%); Side effect: Breathing difficulty (Disturbance in respiratory organ, chest and mediastinum) (40 mg, 6 weeks, 50 subjects): 0 (0) number of subjects (%); Side effect: Cervical rigidity (Musculoskeletal system and connective tissue disorder) (40 mg, 6 weeks, 50 subjects): 1 (2) number of subjects (%); Side effect: Cogwheel rigidity (Nervous system disorder) (40 mg, 6 weeks, 50 subjects): 0 (0) number of subjects (%); Side effect: Constipation (Gastroenteric disturbance) (40 mg, 6 weeks, 50 subjects): 2 (4) number of subjects (%); Side effect: Decrease in appetite (Metabolic disturbances and nutritional disturbance) (40 mg, 6 weeks, 50 subjects): 1 (2) number of subjects (%); Side effect: Diarrhea (Gastroenteric disturbance) (40 mg, 6 weeks, 50 subjects): 3 (6) number of subjects (%); Side effect: Drowsiness (Nervous system disorder) (40 mg, 6 weeks, 50 subjects): 4 (8) number of subjects (%); Side effect: Dry eye (Ocular disturbance) (40 mg, 6 weeks, 50 subjects): 0 (0) number of subjects (%); Side effect: Dry mouth (Gastroenteric disturbance) (40 mg, 6 weeks, 50 subjects): 0 (0) number of subjects (%); Side effect: Dyspepsia (Gastroenteric disturbance) (40 mg, 6 weeks, 50 subjects): 3 (6) number of subjects (%); Side effect: Dystonic reaction (Nervous system disorder) (40 mg, 6 weeks, 50 subjects): 1 (2) number of subjects (%); Side effect: Exacerbation of insomnia (Mental disturbance) (40 mg, 6 weeks, 50 subjects): 0 (0) number of subjects (%); Side effect: External otitis (Infection and parasitosis) (40 mg, 6 weeks, 50 subjects): 1 (2) number of subjects (%); Side effect: Extrapyramidal disease (Nervous system disorder) (40 mg, 6 weeks, 50 subjects): 1 (2) number of subjects (%); Side effect: Fatigue (Total disability and local condition) (40 mg, 6 weeks, 50 subjects): 3 (6) number of subjects (%); Side effect: Fatigue aggravated (Total disability and local condition) (40 mg, 6 weeks, 50 subjects): 1 (2) number of subjects (%); Side effect: Flatulence (Gastroenteric disturbance) (40 mg, 6 weeks, 50 subjects): 1 (2) number of subjects (%); Side effect: Flushing (Vascular diseases) (40 mg, 6 weeks, 50 subjects): 0 (0) number of subjects (%); Side effect: Free-floating vertigo (excluding rotatory vertigo) (Nervous system disorder) (40 mg, 6 weeks, 50 subjects): 5 (10) number of subjects (%); Side effect: Frequent urination (Renal Injury and urinary disorder) (40 mg, 6 weeks, 50 subjects): 0 (0) number of subjects (%); Side effect: Glossoplegia (Nervous system disorder) (40 mg, 6 weeks, 50 subjects): 0 (0) number of subjects (%); Side effect: Headache (Nervous system disorder) (40 mg, 6 weeks, 50 subjects): 6 (12) number of subjects (%); Side effect: Heavy feeling (Musculoskeletal system and connective tissue disorder) (40 mg, 6 weeks, 50 subjects): 1 (2) number of subjects (%); Side effect: Hot flashes (Vascular diseases) (40 mg, 6 weeks, 50 subjects): 0 (0) number of subjects (%); Side effect: Hot sensation (Total disability and local condition) (40 mg, 6 weeks, 50 subjects): 0 (0) number of subjects (%); Side effect: Increase in creatine phosphokinase level in the blood (Laboratory assay) (40 mg, 6 weeks, 50 subjects): 1 (2) number of subjects (%); Side effect: Increase in prolactin level in the blood (Laboratory assay) (40 mg, 6 weeks, 50 subjects): 1 (2) number of subjects (%); Side effect: Increase in total protein (Laboratory assay) (40 mg, 6 weeks, 50 subjects): 1 (2) number of subjects (%); Side effect: Insomnia (Mental disturbance) (40 mg, 6 weeks, 50 subjects): 1 (2) number of subjects (%); Side effect: Laryngopharynx pain (Disturbance in respiratory organ, chest and mediastinum) (40 mg, 6 weeks, 50 subjects): 1 (2) number of subjects (%); Side effect: Loose stools (Gastroenteric disturbance) (40 mg, 6 weeks, 50 subjects): 0 (0) number of subjects (%); Side effect: Melalgia (Musculoskeletal system and connective tissue disorder) (40 mg, 6 weeks, 50 subjects): 0 (0) number of subjects (%); Side effect: Muscle stiffness (Musculoskeletal system and connective tissue disorder) (40 mg, 6 weeks, 50 subjects): 2 (4) number of subjects (%); Side effect: Myalgic pain (Musculoskeletal system and connective tissue disorder) (40 mg, 6 weeks, 50 subjects): 0 (0) number of subjects (%); Side effect: Nausea (Gastroenteric disturbance) (40 mg, 6 weeks, 50 subjects): 4 (8) number of subjects (%); Side effect: Nightmare (Mental disturbance) (40 mg, 6 weeks, 50 subjects): 0 (0) number of subjects (%); Side effect: Palpitation (Heart problems) (40 mg, 6 weeks, 50 subjects): 0 (0) number of subjects (%); Side effect: Parotiditis (Infection and parasitosis) (40 mg, 6 weeks, 50 subjects): 0 (0) number of subjects (%); Side effect: Polyuria (Renal Injury and urinary disorder) (40 mg, 6 weeks, 50 subjects): 0 (0) number of subjects (%); Side effect: Pruritus (Disturbance in Skin and Hypodermis) (40 mg, 6 weeks, 50 subjects): 0 (0) number of subjects (%); Side effect: Psychosis aggravated (Mental disturbance) (40 mg, 6 weeks, 50 subjects): 0 (0) number of subjects (%); Side effect: Restlessness (Mental disturbance) (40 mg, 6 weeks, 50 subjects): 1 (2) number of subjects (%); Side effect: Salivary hypersecretion (Gastroenteric disturbance) (40 mg, 6 weeks, 50 subjects): 0 (0) number of subjects (%); Side effect: Sinus tachycardia (Heart problems) (40 mg, 6 weeks, 50 subjects): 0 (0) number of subjects (%); Side effect: Sleepiness (Total disability and local condition) (40 mg, 6 weeks, 50 subjects): 1 (2) number of subjects (%); Side effect: Suppression (Nervous system disorder) (40 mg, 6 weeks, 50 subjects): 9 (18) number of subjects (%); Side effect: Tinea pedis (Infection and parasitosis) (40 mg, 6 weeks, 50 subjects): 0 (0) number of subjects (%); Side effect: Tongue disturbance (Gastroenteric disturbance) (40 mg, 6 weeks, 50 subjects): 1 (2) number of subjects (%); Side effect: Tremor (Nervous system disorder) (40 mg, 6 weeks, 50 subjects): 3 (6) number of subjects (%); Side effect: Trismus (Nervous system disorder) (40 mg, 6 weeks, 50 subjects): 0 (0) number of subjects (%); Side effect: Urinary tract infection (Infection and parasitosis) (40 mg, 6 weeks, 50 subjects): 1 (2) number of subjects (%); Side effect: Vomiting (Gastroenteric disturbance) (40 mg, 6 weeks, 50 subjects): 2 (4) number of subjects (%); Side effect: Weight loss (Laboratory assay) (40 mg, 6 weeks, 50 subjects): 1 (2) number of subjects (%); Akathisia (adverse event) (40 mg-treated group): 8%; Exacerbation of schizophrenia (adverse event) (40 mg-treated group): 4%; Ratio of the subjects showing suppression (40 mg-treated group): 18%; Serious adverse events (40 mg-treated group): 3 cases; Number of subjects showing adverse events (%) (120 mg orally once a day for 6 weeks, 49 subjects): 38 (78) number of subjects (%)
